This is an account of results in article PMC11861015, “Discovery of novel naphthalene-based diarylamides as pan-Raf kinase inhibitors with promising anti-melanoma activity: rational design, synthesis, in vitro and in silico screening” (Archives of Pharmacal Research, 2025).

Each structure is given as a SMILES string.

One test concerns the target T1, B-Raf^WT (Homo sapiens, UniProt P15056).
T1 construct: purchased Reaction Biology Co. (Kinase HotSpot service)
Nature of the test: In vitro biochemical kinase assay (Kinase HotSpot, Reaction Biology), one-point and 10-dose. The note with it: ATP 10 μM; for inhibition at 10 µM: 10 µM compound, duplicate, read-out: In vitro protein kinase inhibition values (%) B-Raf^WT.

For another test, the target named is T2, B-Raf^V600E (Homo sapiens, UniProt P15056, V600E).
T2 construct: purchased Reaction Biology Co. (Kinase HotSpot service)
T2 sequence (P15056 whole entry V600E): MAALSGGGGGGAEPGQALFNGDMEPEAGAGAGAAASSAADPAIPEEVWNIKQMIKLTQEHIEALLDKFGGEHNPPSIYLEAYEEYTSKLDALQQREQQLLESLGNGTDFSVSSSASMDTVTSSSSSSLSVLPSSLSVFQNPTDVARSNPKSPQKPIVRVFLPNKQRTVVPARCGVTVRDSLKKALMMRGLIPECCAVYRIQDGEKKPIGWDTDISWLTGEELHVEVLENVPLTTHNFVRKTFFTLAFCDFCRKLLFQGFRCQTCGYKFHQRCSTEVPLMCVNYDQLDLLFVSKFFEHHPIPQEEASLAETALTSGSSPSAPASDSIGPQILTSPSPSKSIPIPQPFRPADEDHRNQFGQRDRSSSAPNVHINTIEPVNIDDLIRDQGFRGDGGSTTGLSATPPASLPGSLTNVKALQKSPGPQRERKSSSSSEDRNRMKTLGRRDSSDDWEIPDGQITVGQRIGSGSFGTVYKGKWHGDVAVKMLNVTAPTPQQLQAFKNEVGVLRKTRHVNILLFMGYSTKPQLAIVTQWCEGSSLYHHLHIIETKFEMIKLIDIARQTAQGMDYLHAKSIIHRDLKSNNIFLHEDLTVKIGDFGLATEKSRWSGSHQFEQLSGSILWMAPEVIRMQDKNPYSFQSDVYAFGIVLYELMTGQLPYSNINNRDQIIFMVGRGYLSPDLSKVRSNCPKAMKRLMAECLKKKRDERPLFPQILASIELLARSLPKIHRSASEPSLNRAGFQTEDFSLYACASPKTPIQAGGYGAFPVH
The description is as above. The note with it: ATP 10 μM; for inhibition at 10 µM: 10 µM compound, duplicate, read-out: In vitro protein kinase inhibition values (%) B-Raf^V600E.

A further test deals with c-Raf (Homo sapiens, UniProt P04049). The description is as above. The note with it: ATP 10 μM; for inhibition at 10 µM: 10 µM compound, duplicate, read-out: In vitro protein kinase inhibition values (%) c-Raf.
Sequence of c-Raf (P04049 whole entry): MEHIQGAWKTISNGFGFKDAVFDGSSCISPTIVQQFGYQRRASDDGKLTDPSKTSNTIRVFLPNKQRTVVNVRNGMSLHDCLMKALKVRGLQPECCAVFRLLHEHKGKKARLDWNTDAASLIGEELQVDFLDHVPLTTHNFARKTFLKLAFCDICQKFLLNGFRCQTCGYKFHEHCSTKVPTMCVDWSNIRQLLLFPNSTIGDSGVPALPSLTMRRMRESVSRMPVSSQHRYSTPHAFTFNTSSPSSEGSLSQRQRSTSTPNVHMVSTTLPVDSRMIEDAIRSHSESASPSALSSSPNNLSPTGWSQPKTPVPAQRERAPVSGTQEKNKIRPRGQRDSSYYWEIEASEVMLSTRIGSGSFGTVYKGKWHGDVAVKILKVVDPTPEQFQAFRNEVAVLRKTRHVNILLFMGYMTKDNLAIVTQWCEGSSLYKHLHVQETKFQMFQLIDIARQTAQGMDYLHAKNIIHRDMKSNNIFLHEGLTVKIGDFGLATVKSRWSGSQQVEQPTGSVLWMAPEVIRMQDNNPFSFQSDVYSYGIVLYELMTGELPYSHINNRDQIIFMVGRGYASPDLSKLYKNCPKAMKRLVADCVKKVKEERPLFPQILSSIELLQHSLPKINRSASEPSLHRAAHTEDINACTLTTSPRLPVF
In a further test the target is T3, ALK (Homo sapiens, UniProt Q9UM73).
T3 construct: purchased Reaction Biology Co. (Kinase HotSpot service)
T3 sequence (Q9UM73 19-1620): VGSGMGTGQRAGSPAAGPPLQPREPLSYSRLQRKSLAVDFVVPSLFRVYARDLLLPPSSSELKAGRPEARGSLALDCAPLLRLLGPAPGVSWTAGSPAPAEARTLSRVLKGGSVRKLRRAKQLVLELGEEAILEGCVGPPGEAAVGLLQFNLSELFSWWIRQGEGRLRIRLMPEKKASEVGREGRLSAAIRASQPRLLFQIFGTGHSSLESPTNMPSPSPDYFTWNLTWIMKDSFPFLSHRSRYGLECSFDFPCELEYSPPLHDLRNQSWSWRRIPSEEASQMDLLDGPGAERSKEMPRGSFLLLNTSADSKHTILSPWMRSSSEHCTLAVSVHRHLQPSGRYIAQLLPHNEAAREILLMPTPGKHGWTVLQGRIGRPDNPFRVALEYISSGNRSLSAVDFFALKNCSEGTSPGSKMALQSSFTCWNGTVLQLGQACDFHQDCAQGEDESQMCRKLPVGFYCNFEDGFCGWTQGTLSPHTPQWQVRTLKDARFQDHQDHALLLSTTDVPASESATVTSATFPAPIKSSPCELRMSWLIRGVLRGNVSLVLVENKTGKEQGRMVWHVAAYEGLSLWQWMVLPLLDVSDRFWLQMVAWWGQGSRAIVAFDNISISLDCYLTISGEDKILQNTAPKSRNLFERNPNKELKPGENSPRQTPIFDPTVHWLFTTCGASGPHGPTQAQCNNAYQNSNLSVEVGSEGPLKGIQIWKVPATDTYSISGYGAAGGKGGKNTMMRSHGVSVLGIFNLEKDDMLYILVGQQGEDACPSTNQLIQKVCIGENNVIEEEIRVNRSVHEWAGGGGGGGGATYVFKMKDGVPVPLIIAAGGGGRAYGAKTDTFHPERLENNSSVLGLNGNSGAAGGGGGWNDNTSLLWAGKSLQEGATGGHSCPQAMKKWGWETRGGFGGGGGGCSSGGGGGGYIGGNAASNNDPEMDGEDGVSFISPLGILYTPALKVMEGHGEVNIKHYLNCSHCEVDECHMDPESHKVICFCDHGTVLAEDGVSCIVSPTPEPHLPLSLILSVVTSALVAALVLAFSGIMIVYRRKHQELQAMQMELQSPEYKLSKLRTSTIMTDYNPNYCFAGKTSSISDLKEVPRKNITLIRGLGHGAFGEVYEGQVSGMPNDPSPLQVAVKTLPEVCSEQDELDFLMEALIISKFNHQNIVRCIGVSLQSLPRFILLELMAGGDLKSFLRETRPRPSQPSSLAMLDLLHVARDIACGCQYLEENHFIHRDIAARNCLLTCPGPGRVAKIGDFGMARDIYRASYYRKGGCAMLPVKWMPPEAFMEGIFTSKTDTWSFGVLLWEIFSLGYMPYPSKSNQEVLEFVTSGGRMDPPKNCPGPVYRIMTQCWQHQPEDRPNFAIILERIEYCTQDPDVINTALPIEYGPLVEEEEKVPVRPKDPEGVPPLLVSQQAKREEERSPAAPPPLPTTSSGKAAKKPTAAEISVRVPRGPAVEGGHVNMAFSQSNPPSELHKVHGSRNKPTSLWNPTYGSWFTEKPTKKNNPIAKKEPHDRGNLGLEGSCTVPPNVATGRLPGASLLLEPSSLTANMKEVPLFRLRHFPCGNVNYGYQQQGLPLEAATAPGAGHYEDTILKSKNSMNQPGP
Nature of the test: Kinase selectivity assay, one-point. The following applies: 10 µM compound, duplicate, ATP 10 μM. The test is classed as biochemical. Here is the method:
(§1) The in vitro kinase inhibitory assays (both one-point and ten-point assays) were performed at Reaction Biology Co. (Malvern, PA, USA). Kinase HotSpot service was used for screening the tested derivatives. The experiment protocol is previously described in detail (Elkamhawy et al. [2016]).
(§2) No significant inhibition was observed over the other tested kinases.

A further test addresses T4, ERK2/MAPK1 (Homo sapiens, UniProt P28482).
T4 construct: purchased Reaction Biology Co. (Kinase HotSpot service)
Nature of the test: Kinase selectivity assay, one-point. It is filed as biochemical. The note with it: 10 µM compound, duplicate, ATP 10 μM. Here is the method:
as §1, §2

Another test concerns the target T5, FGFR1 (Homo sapiens, UniProt P11362).
T5 construct: purchased Reaction Biology Co. (Kinase HotSpot service)
Nature of the test: Kinase selectivity assay, one-point. The test is classed as biochemical. The note with it: 10 µM compound, duplicate, ATP 10 μM. Here is the method: as §1, §2

Another test concerns the target T6, ROS/ROS1 (Homo sapiens, UniProt P08922).
T6 construct: purchased Reaction Biology Co. (Kinase HotSpot service)
The experiment in a line: Kinase selectivity assay, one-point. The following applies: 10 µM compound, duplicate, ATP 10 μM. The test is classed as biochemical. Here is the method:
as §1, §2

The next test deals with T7, TRKB (Homo sapiens, UniProt Q16620).
T7 construct: purchased Reaction Biology Co. (Kinase HotSpot service)
T7 sequence (Q16620 32-822): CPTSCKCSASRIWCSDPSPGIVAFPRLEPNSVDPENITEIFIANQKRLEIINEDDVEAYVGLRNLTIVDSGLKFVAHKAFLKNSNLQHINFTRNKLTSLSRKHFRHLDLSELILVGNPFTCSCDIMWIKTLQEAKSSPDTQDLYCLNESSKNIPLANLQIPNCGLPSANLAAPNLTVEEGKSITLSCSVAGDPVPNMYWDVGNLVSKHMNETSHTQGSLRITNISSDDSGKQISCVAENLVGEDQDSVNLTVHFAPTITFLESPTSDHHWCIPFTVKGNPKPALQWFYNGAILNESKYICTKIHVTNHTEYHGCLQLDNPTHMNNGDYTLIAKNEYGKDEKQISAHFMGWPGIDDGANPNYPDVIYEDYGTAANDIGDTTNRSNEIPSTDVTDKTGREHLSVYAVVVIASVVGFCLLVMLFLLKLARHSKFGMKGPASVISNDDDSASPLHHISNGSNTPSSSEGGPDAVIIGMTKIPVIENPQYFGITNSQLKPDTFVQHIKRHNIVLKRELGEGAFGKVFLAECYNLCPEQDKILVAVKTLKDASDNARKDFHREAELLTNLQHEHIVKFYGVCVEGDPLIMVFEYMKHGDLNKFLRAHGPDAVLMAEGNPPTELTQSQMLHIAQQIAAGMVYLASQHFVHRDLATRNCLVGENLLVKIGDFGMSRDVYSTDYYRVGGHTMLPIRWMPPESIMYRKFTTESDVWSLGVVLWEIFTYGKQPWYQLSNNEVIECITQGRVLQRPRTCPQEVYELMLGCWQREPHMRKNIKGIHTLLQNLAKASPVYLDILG
The experiment in a line: Kinase selectivity assay, one-point. The test is classed as biochemical. The following applies: 10 µM compound, duplicate, ATP 10 μM. The procedure: as §1, §2

For the next test, the target named is T8, mTOR/FRAP1 (Homo sapiens, UniProt P42345).
T8 construct: purchased Reaction Biology Co. (Kinase HotSpot service)
Nature of the test: Kinase selectivity assay, one-point. The test is classed as biochemical. The following applies: 10 µM compound, duplicate, ATP 10 μM. The procedure:
as §1, §2

In test [1] the test system is human melanoma cell line (A375). The experiment in a line: In vitro cytotoxic activity (MTT assay). The following applies: for IC50: Homo sapiens, A-375, A375 cells, read-out: IC50 values (μM) against A375. It is filed as cell-based. Here is the method:
Melanoma skin cancer cell line (A375) of American Type Culture Collection (ATCC) was obtained from Korean Cell Line Bank (KCLB). The A375 cells were cultured in Dulbecco’s modified eagle’s medium (DMEM) (GenDepot) supplemented with 1% penicillin–streptomycin and 10% fetal bovine serum (FBS). The cells were maintained at 37 °C in a 5% CO2 with a 95% humid atmosphere. MTT assay, analysis of the cell cycle distribution, apoptosis analysis, and statistical analysis were carried out following known standard protocols adopted by our team earlier (Son et al. [2023]). […]

Test [2] deals with melanoma cell line A375. Nature of the test: Cell cycle analysis. The note with it: A375 cells treated at IC50.
Test [3] relates to melanoma cell line A375. The experiment in a line: Apoptosis analysis (PE-Annexin V / DAPI). The following applies: dosage close to IC50, dot plot.
The target of the next test is Raf kinase enzyme. Also noted: method as in Buchstaller et al. [2011]. The note with it: ref Buchstaller et al. [2011]; read-out: IC50 against the Raf kinase enzyme; cited from earlier work.
The test system of test [4] is Raf kinase enzymes (B-Raf^WT, B-Raf^V600E, and c-Raf). Nature of the test: One-point kinase assay, summary across Raf kinases. The test is classed as biochemical. The note with it: 10 μM compound, ATP 10 μM, span over B-Raf^WT. The procedure:
as §1
To evaluate the new structural design of our compounds (9a–i), the biochemical activity was evaluated against Raf kinase enzymes (B-Raf^WT, B-Raf^V600E, and c-Raf) in one-point dose (10 μM) at duplicate mode using ATP concentration 10 μM. The results are presented in Table 2 and expressed in % inhibition.

The mark [5] stands for this setting: 10-dose, threefold serial dilution from 20 μM.

As usually defined, the inhibition is the relative decrease from the control value, in per cent. In general, IC50 refers to the concentration at which inhibition is half-maximal.

T1 sequence (P15056 whole entry): as the sequence (P15056 whole entry V600E) above, with E600V counted along it
T4 sequence (P28482 whole entry): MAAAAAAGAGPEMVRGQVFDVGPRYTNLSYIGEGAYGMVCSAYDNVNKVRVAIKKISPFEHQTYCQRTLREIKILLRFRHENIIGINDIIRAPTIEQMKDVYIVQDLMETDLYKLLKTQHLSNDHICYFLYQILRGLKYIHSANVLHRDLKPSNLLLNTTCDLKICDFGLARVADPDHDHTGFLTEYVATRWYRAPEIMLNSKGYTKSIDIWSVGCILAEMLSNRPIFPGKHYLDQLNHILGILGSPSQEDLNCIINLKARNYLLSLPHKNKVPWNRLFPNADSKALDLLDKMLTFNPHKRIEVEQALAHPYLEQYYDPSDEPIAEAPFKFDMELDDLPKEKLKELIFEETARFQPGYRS
T5 sequence (P11362 22-822): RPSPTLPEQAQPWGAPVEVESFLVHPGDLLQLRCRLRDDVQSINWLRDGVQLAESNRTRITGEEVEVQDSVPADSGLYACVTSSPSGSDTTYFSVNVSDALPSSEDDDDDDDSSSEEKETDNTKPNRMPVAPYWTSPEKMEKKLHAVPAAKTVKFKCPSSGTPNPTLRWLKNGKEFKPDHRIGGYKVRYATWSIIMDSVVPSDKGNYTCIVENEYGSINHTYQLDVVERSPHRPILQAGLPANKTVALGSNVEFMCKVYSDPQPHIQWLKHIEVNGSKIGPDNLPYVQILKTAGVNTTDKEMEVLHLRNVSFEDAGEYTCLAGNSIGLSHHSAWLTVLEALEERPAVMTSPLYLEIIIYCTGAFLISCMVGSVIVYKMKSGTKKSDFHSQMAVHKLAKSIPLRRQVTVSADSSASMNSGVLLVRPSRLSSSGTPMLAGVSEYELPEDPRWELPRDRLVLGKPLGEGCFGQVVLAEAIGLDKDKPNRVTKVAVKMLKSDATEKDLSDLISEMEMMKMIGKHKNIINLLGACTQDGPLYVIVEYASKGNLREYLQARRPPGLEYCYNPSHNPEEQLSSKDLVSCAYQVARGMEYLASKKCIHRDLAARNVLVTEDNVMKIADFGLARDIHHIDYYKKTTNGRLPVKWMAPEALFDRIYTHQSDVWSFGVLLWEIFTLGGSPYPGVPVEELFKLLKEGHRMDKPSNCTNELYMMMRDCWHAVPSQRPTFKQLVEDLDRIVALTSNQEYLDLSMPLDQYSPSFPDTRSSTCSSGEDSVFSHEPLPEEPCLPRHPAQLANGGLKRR

For the compound `CNC(=O)c1cc(Oc2ccc3c(C(=O)Nc4cccc(OC(F)F)c4)cccc3c2)ccn1` [Compound 9a, 4-((5-((3-(Difluoromethoxy)phenyl)carbamoyl)naphthalen-2-yl)oxy)-N-methylpicolinamide], the inhibition at 10 µM on B-Raf^WT worked out at 99.4%; at B-Raf^V600E, 100%; at c-Raf it was 99.8%; against ALK, 8.23%; on ERK2/MAPK1 it was 0%; against FGFR1, 86.2%. The inhibition at 10 µM is 0% against ROS/ROS1, 17.3% against TRKB and 0% at mTOR/FRAP1. Further, the IC50 turned out to be 49.7 nM against B-Raf^WT (setting [5]), 18 nM against B-Raf^V600E (setting [5]), 2.86 nM at c-Raf (setting [5]) and 0.12 ± 0.013 µM in test [1]. The “G0/G1 phase Percent” value in the test on melanoma cell line A375 [2] amounted to 18.92%. In addition, the “G2/M phase Percent” value in the test with melanoma cell line A375 [2] stood at 6.45%. In addition, the “S phase Percent” value with melanoma cell line A375 [2] was 71.83%. In the test with melanoma cell line A375 [3], this compound registered a N quadrant cells of 6.69%. The “early apoptosis (E.A) cells” value with melanoma cell line A375 [3] turned out to be 9.11%. Besides, the “late apoptosis (L.A) cells” value in the test on melanoma cell line A375 [3] was 3.54%. For the same compound, the “live (L) cells” value in the test on melanoma cell line A375 [3] was found to be 80.66%.
Take `CNC(=O)c1cc(Oc2ccc3c(C(=O)Nc4ccc(OC)c(F)c4)cccc3c2)ccn1` [Compound 9d, 4-((5-((3-Fluoro-4-methoxyphenyl)carbamoyl)naphthalen-2-yl)oxy)-N-methylpicolinamide]: the figures for the inhibition at 10 µM at B-Raf^WT, on B-Raf^V600E and on c-Raf were 97.4%, 98.2% and 99.6%, respectively. Besides, in test [1], the IC50 amounted to 0.54 ± 0.019 µM.
With `CNC(=O)c1cc(Oc2ccc3c(C(=O)Nc4ccc(OC)c(Cl)c4)cccc3c2)ccn1` [Compound 9i, 4-((5-((3-Chloro-4-methoxyphenyl)carbamoyl)naphthalen-2-yl)oxy)-N-methylpicolinamide], the inhibition at 10 µM stood at 99.7% on B-Raf^WT, 100% at B-Raf^V600E and 99.6% on c-Raf. In addition, the IC50 in test [1] turned out to be 1.75 ± 0.021 µM.
Consider `CNC(=O)c1cc2ccc(CCNC(=O)Nc3cc(C(F)(F)F)c(Cl)cc3OC)cc2cn1` [Compound 4], for which the IC50 at Raf kinase enzyme is 80 nM.
Regarding `CNC(=O)c1cc(Oc2ccc3c(C(=O)Nc4ccc(F)cc4)cccc3c2)ccn1` [Compound 9f, 4-((5-((4-Fluorophenyl)carbamoyl)naphthalen-2-yl)oxy)-N-methylpicolinamide], the inhibition at 10 µM at B-Raf^WT was found to be 74.7%; on B-Raf^V600E, 75.8%; on c-Raf it was 96.5%. Besides, the IC50 in test [1] was 0.44 ± 0.008 µM.
`CNC(=O)c1cc(Oc2ccc3c(C(=O)Nc4cc(C)cc(Br)c4)cccc3c2)ccn1` [Compound 9h, 4-((5-((3-Bromo-5-methylphenyl)carbamoyl)naphthalen-2-yl)oxy)-N-methylpicolinamide]: the results for the inhibition at 10 µM at B-Raf^WT, on B-Raf^V600E and on c-Raf were 99.6%, 100% and 99.8%, respectively. Moreover, the IC50 in test [1] came out at 1.67 ± 0.032 µM.
As for `CNC(=O)c1cc(Oc2ccc3c(C(=O)Nc4ccc(N5CCOCC5)c(F)c4)cccc3c2)ccn1` [Compound 9e, 4-((5-((3-Fluoro-4-morpholinophenyl)carbamoyl)naphthalen-2-yl)oxy)-N-methylpicolinamide], the inhibition at 10 µM at B-Raf^WT stood at 42.1%; on B-Raf^V600E it was 24.9%; on c-Raf, 76.3%. Also, the “IC50 values (μM) against A375” value in test [1] (A375 cells) is “weak cytotoxic activity”. In addition, the IC50 in [1] is 4.46 ± 0.024 µM. Also, the “% inhibition across the tested Raf kinases” value in test [4] is given as 24.93–76.30%.
For the compound `CNC(=O)c1cc(Oc2ccc(NC(=O)Nc3ccc(Cl)c(C(F)(F)F)c3)cc2)ccn1` [Sorafenib], the concentration for half-maximal inhibition (IC50) in test [1] was determined as 0.92 ± 0.018 µM. In the test on melanoma cell line A375 [2], the “G0/G1 phase Percent” value amounted to 34.08%, the “G2/M phase Percent” value came to 13.41% and the “S phase Percent” value came to 49.72%. In the test with melanoma cell line A375 [2] (listed as sorafenib), the “G0/G1 phase Percent” value came out at 34.08%, the “G2/M phase Percent” value is listed as 13.41% and the “S phase Percent” value came out at 49.72%. In addition, in the test on melanoma cell line A375 [3], the N quadrant cells is on record as 12.49%, the “early apoptosis (E.A) cells” value turned out to be 4.03%, the “late apoptosis (L.A) cells” value turned out to be 4.34% and the “live (L) cells” value is recorded as 79.14%.
Turning to `CNC(=O)c1cc(Oc2ccc3c(C(=O)Nc4ccc(C)c(C)c4)cccc3c2)ccn1` [Compound 9g, 4-((5-((3,4-Dimethylphenyl)carbamoyl)naphthalen-2-yl)oxy)-N-methylpicolinamide], the inhibition at 10 µM worked out at 99.3% at B-Raf^WT, 100% at B-Raf^V600E and 99.8% on c-Raf. The IC50 in [1] is 1.42 ± 0.013 µM.
In the case of `CNC(=O)c1cc(Oc2ccc3c(C(=O)Nc4ccc(C(C)C)cc4)cccc3c2)ccn1` [Compound 9b, 4-((5-((4-Isopropylphenyl)carbamoyl)naphthalen-2-yl)oxy)-N-methylpicolinamide], the inhibition at 10 µM was determined as 98.4% at B-Raf^WT, 98.4% on B-Raf^V600E and 99.7% at c-Raf. The half-maximal inhibitory concentration (IC50) in test [1] amounted to 0.17 ± 0.012 µM.
As to `CNC(=O)c1cc(Oc2ccc3c(C(=O)Nc4ccc(I)cc4)cccc3c2)ccn1` [Compound 9c, 4-((5-((4-Iodophenyl)carbamoyl)naphthalen-2-yl)oxy)-N-methylpicolinamide], the inhibition at 10 µM turned out to be 92.7% at B-Raf^WT, 88.6% on B-Raf^V600E and 98.9% at c-Raf. Besides, the IC50 in test [1] came to 0.67 ± 0.017 µM.
